Experimental data as given in ChEMBL document CHEMBL3046686, “Isoxazole derivatives as a potential insecticide for managing Callosobruchus chinensis” (2010).
Values after ≈ are worked out from the molar mass of the structure shown.

Tests used:
Callosobruchus chinensis [1] = assay: Insecticidal activity against Callosobruchus chinensis assessed as mortality at 1000 mg/l at 27 +/- 1 degC and 70% RH; assay type: functional
Callosobruchus chinensis [2] = assay: Insecticidal activity against Callosobruchus chinensis assessed as mortality at 27 +/- 1 degC and 70% RH; assay type: functional

Structure (SMILES)	mortality at 1000 µg/mL (Callosobruchus chinensis [1])	LC50 (Callosobruchus chinensis [2])
Clc1ccc(-c2cc(-c3ccccc3)on2)cc1	65%	–
COP(=O)(OC)OC=C(Cl)Cl [DICHLORVOS]	–	155 µg/mL (≈ 701 µM)
Clc1ccc(-c2cc(-c3ccccc3)no2)cc1	46%	–
Clc1ccccc1-c1cc(-c2ccccc2)on1	78%	36 µg/mL (≈ 141 µM)
COc1ccc(-c2cc(-c3ccc(OC)cc3)on2)cc1	89%	296 µg/mL (≈ 1050 µM)
Fc1ccc(-c2cc(-c3ccccc3)on2)cc1	86%	254 µg/mL (≈ 1060 µM)
COc1ccc(-c2cc(-c3ccc(C)cc3)on2)cc1	84%	93 µg/mL (≈ 351 µM)
COc1ccc(-c2cc(-c3ccc(Cl)cc3)no2)cc1	82%	354 µg/mL (≈ 1240 µM)
COc1ccc(-c2cc(-c3ccccc3)no2)cc1	66%	–
Cc1ccc(-c2cc(-c3ccc(F)cc3)no2)cc1	67%	–
Clc1ccc(-c2cc(-c3ccccc3Cl)no2)cc1	85%	338 µg/mL (≈ 1160 µM)
Cc1ccc(-c2cc(-c3ccccc3)no2)cc1	65%	–
Cc1ccc(-c2cc(-c3ccccc3Cl)no2)cc1	68%	–
c1ccc(-c2cc(-c3ccccc3)on2)cc1 [3,5-DIPHENYLISOXAZOLE]	67%	–
Clc1ccc(-c2cc(-c3ccc(Cl)cc3)on2)cc1	90%	134 µg/mL (≈ 462 µM)
COc1ccc(-c2cc(-c3ccccc3Cl)no2)cc1	86%	110 µg/mL (≈ 385 µM)
COc1ccc(-c2cc(-c3ccc(F)cc3)no2)cc1	88%	289 µg/mL (≈ 1070 µM)
COc1ccc(-c2cc(-c3ccc(Cl)cc3)on2)cc1	85%	330 µg/mL (≈ 1150 µM)
Fc1ccc(-c2cc(-c3ccc(Cl)cc3)on2)cc1	59%	–
Cc1ccc(-c2cc(-c3ccc(Cl)cc3)no2)cc1	63%	–
COc1ccc(-c2cc(-c3ccccc3)on2)cc1	58%	–
